# Test results published in US9796711B2, “Substituted pyrazolo[3,4-b]pyridin-6-carboxylic acids and method of use” (AbbVie S.àr.l., priority 2015, dated 2017).
# pEC50: −log10 of the molar value.
# How the values were obtained:
# ΔF508-CFTR [1] = molecular target: T1, ΔF508-CFTR (Homo sapiens, UniProt P13569, DEL508-508); assay: CFTR cell surface levels using HRP-tagged ΔF508-CFTR expressing CFBE cells, in the presence of a co-corrector; type: cell-based; conditions: HRP-tagged ΔF508-CFTR expressing CFBE cells, in the presence of 3 μM co-corrector; for pEC50: read-out: EC50
# T1 construct: host or cells: CFBE41o-, doxycycline-inducible
# T1 sequence (P13569 with tags, fused parts or gaps DEL508-508): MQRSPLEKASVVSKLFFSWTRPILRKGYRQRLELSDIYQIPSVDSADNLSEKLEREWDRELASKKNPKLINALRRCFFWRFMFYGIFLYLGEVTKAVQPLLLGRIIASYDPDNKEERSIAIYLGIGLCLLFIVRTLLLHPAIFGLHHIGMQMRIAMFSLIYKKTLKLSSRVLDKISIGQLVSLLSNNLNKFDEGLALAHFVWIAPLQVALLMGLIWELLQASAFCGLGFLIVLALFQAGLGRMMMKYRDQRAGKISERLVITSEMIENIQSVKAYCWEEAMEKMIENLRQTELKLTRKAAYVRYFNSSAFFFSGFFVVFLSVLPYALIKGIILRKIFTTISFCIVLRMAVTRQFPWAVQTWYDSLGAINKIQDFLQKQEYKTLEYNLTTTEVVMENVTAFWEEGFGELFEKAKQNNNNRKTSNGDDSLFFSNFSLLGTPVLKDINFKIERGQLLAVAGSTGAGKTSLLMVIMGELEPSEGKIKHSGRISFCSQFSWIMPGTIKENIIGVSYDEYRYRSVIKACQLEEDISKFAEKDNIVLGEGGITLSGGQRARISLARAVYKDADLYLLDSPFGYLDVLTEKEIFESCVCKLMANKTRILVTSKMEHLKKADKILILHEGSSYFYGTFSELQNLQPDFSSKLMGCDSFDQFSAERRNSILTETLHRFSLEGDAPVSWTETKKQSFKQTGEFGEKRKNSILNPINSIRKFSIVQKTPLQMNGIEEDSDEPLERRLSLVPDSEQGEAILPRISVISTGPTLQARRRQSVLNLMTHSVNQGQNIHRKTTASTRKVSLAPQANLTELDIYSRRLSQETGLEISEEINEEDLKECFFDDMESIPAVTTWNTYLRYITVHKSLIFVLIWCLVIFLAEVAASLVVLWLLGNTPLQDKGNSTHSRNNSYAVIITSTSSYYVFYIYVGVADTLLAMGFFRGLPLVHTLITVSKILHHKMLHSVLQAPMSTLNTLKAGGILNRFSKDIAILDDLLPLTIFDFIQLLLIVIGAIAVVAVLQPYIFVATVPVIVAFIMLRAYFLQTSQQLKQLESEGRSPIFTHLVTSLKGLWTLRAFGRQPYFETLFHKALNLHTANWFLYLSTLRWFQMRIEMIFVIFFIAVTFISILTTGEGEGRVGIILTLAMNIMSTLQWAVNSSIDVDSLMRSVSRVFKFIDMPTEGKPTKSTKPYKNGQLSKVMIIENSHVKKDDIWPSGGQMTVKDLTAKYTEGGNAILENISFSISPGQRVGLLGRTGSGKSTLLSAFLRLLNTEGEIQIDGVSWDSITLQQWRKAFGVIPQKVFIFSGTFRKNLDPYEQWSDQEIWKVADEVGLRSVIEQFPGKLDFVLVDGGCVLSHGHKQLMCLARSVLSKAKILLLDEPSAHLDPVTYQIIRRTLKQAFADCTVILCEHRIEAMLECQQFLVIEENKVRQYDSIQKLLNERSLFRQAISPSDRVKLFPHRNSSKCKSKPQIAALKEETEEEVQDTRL
# Outline: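 Cells were seeded with 0.5 μg/mL doxycycline and held 68 h at 37 °C. Test compounds plus 3 μM co-corrector (final 0.1% DMSO) were then added for 20 h at 33 °C. Washed cells received HRP substrate, and luminescence was normalized between DMSO and 3 μM co-corrector controls.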
# ΔF508-CFTR [2] = molecular target: T1, ΔF508-CFTR; assay: CFTR cell surface levels using HRP-tagged ΔF508-CFTR expressing CFBE cells, intrinsic corrector capacity; type: cell-based; conditions: HRP-tagged ΔF508-CFTR expressing CFBE cells, intrinsic corrector capacity (no co-corrector), 33° C., 20 hours; for pEC50: read-out: EC50
# Outline: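 Here the cells express ΔF508-CFTR with horseradish peroxidase inserted in extracellular loop 4, so only rescued channel at the surface gives luminescent signal. Compounds act on their own, 20 h at the reduced temperature of 33 °C; values are percent activity relative to DMSO and a 3 μM corrector.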
Structure (SMILES),% Activation (ΔF508-CFTR [1]),pEC50 (ΔF508-CFTR [1]),% Activation (ΔF508-CFTR [2]),pEC50 (ΔF508-CFTR [2])
"CN1CCC[C@H](Oc2cc(C(=O)O)nc3c2c(C2CCC2)nn3-c2ccccc2)C1 [compound 494, 3-cyclobutyl-4-{[(3S)-1-methylpiperidin-3-yl]oxy}-1-phenyl-1H-pyrazolo[3,4-b]pyridine-6-carboxylic acid]",196.7%,5.94,65.56%,5.48
"O=C(O)c1cc(OC2CC3(COC3)C2)c2c(C3CCC3)nn(-c3ccccc3)c2n1 [compound 495, 3-cyclobutyl-4-[(2-oxaspiro[3.3]heptan-6-yl)oxy]-1-phenyl-1H-pyrazolo[3,4-b]pyridine-6-carboxylic acid]",235.15%,6.51,95.96%,5.95
"CN1CCC[C@@H](Oc2cc(C(=O)O)nc3c2c(C2CCC2)nn3-c2ccccc2)C1 [compound 496, 3-cyclobutyl-4-{[(3R)-1-methylpiperidin-3-yl]oxy}-1-phenyl-1H-pyrazolo[3,4-b]pyridine-6-carboxylic acid]",145.5%,5.67,32.84%,5.48
"CC(=O)N1CC(Oc2nn(-c3ccccc3)c3nc(C(=O)O)cc(-c4ccc(N5CCOCC5)cc4)c23)C1 [compound 497, 3-[(1-acetylazetidin-3-yl)oxy]-4-[4-(morpholin-4-yl)phenyl]-1-phenyl-1H-pyrazolo[3,4-b]pyridine-6-carboxylic acid]",157.55%,5.48,24.76%,< 5.00
"COC(C)C1CCN(c2cc(C(=O)O)nc3c2c(C2CCC2)nn3-c2ccccc2)CC1 (stereo not drawn) [compound 498, 3-cyclobutyl-4-[4-(1-methoxyethyl)piperidin-1-yl]-1-phenyl-1H-pyrazolo[3,4-b]pyridine-6-carboxylic acid]",435.9%,7.06,244.33%,6.49
"COC(C)(C1CCN(c2cc(C(=O)O)nc3c2c(C2CCC2)nn3-c2ccccc2)CC1)C(F)(F)F (stereo not drawn) [compound 499, 3-cyclobutyl-1-phenyl-4-[4-(1,1,1-trifluoro-2-methoxypropan-2-yl)piperidin-1-yl]-1H-pyrazolo[3,4-b]pyridine-6-carboxylic acid]",435.6%,6.70,242.93%,6.41
"CCN(CC)C(=O)C1CCCN(c2cc(C(=O)O)nc3c2c(C2CCC2)nn3-c2ccccc2)C1 (stereo not drawn) [compound 500, 3-cyclobutyl-4-[3-(diethylcarbamoyl)piperidin-1-yl]-1-phenyl-1H-pyrazolo[3,4-b]pyridine-6-carboxylic acid]",289%,6.53,132.8%,6.33
"O=C(O)c1cc(N2CCC(O)CC2)c2c(C3CCC3)nn(-c3ccccc3)c2n1 [compound 501, 3-cyclobutyl-4-(4-hydroxypiperidin-1-yl)-1-phenyl-1H-pyrazolo[3,4-b]pyridine-6-carboxylic acid]",367.65%,6.45,152.7%,6.20
"Cc1ncn(C)c(=O)c1CCN1CCN(c2cc(C(=O)O)nc3c2c(C2CCC2)nn3-c2ccccc2)CC1 [compound 502, 3-cyclobutyl-4-{4-[2-(1,4-dimethyl-6-oxo-1,6-dihydropyrimidin-5-yl)ethyl]piperazin-1-yl}-1-phenyl-1H-pyrazolo[3,4-b]pyridine-6-carboxylic acid]",327%,5.87,152%,5.48
"CN1C(=O)CO[C@@H]2CN(c3cc(C(=O)O)nc4c3c(C3CCC3)nn4-c3ccccc3)C[C@@H]21 [compound 503, 3-cyclobutyl-4-[(4aS,7aR)-4-methyl-3-oxohexahydropyrrolo[3,4-b][1,4]oxazin-6(2H)-yl]-1-phenyl-1H-pyrazolo[3,4-b]pyridine-6-carboxylic acid]",220.8%,5.50,65.78%,5.48
"O=C1CN(c2cc(C(=O)O)nc3c2c(C2CCC2)nn3-c2ccccc2)CCN1 [compound 504, 3-cyclobutyl-4-(3-oxopiperazin-1-yl)-1-phenyl-1H-pyrazolo[3,4-b]pyridine-6-carboxylic acid]",138.9%,< 5.00,19.62%,< 5.00
"O=C1CCC[C@H]2CN(c3cc(C(=O)O)nc4c3c(C3CCC3)nn4-c3ccccc3)C[C@H]2N1 [compound 505, 3-cyclobutyl-4-[(5aS,8aS)-2-oxooctahydropyrrolo[3,4-b]azepin-7(1H)-yl]-1-phenyl-1H-pyrazolo[3,4-b]pyridine-6-carboxylic acid]",118.3%,< 5.00,-6.616%,< 5.00
"O=C(O)c1cc(N2CC(F)(F)C[C@@H]2CO)c2c(C3CCC3)nn(-c3ccccc3)c2n1 [compound 506, 3-cyclobutyl-4-[(2R)-4,4-difluoro-2-(hydroxymethyl)pyrrolidin-1-yl]-1-phenyl-1H-pyrazolo[3,4-b]pyridine-6-carboxylic acid]",137.7%,< 5.00,40.12%,5.48
"O=C(O)c1cc(N2C[C@@H](F)C[C@H]2CO)c2c(C3CCC3)nn(-c3ccccc3)c2n1 [compound 507, 3-cyclobutyl-4-[(2S,4S)-4-fluoro-2-(hydroxymethyl)pyrrolidin-1-yl]-1-phenyl-1H-pyrazolo[3,4-b]pyridine-6-carboxylic acid]",218.3%,5.60,132.8%,5.66
"COCC1(F)CCN(c2cc(C(=O)O)nc3c2c(C2CCC2)nn3-c2ccccc2)C1 (stereo not drawn) [compound 508, 3-cyclobutyl-4-[3-fluoro-3-(methoxymethyl)pyrrolidin-1-yl]-1-phenyl-1H-pyrazolo[3,4-b]pyridine-6-carboxylic acid]",271.8%,6.35,104.6%,5.95
"O=C(O)c1cc(N2CC[C@H](O)[C@H](F)C2)c2c(C3CCC3)nn(-c3ccccc3)c2n1 [compound 509, 3-cyclobutyl-4-[(3R,4S)-3-fluoro-4-hydroxypiperidin-1-yl]-1-phenyl-1H-pyrazolo[3,4-b]pyridine-6-carboxylic acid]",344.6%,5.78,123.6%,5.91
"CCOCC1(F)CCN(c2cc(C(=O)O)nc3c2c(C2CCC2)nn3-c2ccccc2)C1 (stereo not drawn) [compound 510, 3-cyclobutyl-4-[3-(ethoxymethyl)-3-fluoropyrrolidin-1-yl]-1-phenyl-1H-pyrazolo[3,4-b]pyridine-6-carboxylic acid]",313.2%,6.40,99.8%,5.95
"CC1(CO)CN(c2cc(C(=O)O)nc3c2c(C2CCC2)nn3-c2ccccc2)C1 [compound 511, 3-cyclobutyl-4-[3-(hydroxymethyl)-3-methylazetidin-1-yl]-1-phenyl-1H-pyrazolo[3,4-b]pyridine-6-carboxylic acid]",214.6%,5.99,56.48%,5.48
